Reference: patent US20100098689A1, “4-1 bb ligand in inflammatory diseases” (The Scripps Research Institute, priority 2006, published 2010)
Peptide text beside a SMILES is read from it. * marks the point of attachment. Cbz = O=C(OCc1ccccc1)*

Legend:
Format in all cases: cell-based, mouse
4-1BBL mRNA = experiment: Semiquantitative PCR of LPS-induced 4-1BBL mRNA in macrophages; conditions: for LPS-induced 4-1BBL mRNA / 4-1BBL expression: pretreated 1 hour with 20 μM sulfasalazine, 10 μM SB203580, 5 μM SP600125 or 10 μM PD98059, then LPS, MG-132 data not shown
Method: (A) Immunoblot of 4-1BBL in lysates from wild-type macrophages and macrophages deficient in TLR4 (TLR4 KO), MyD88 (MyD88 KO) or TRIF (TRIF KO), treated with LPS (time, above lanes). LPS induces quick expression of 4-1BBL in macrophages in a TLR4-, MyD88-, and TRIF-dependent manner. (B) Semiquantitative PCR of 4-1BBL mRNA in wild-type macrophages left without pretreatment (None) or pretreated for 1 hour with inhibitors of NF-κB (20 μM sulfasalazine), p38 (10 μM SB203580), Jnk (5 μM SP600125) or MEK (10 μM PD98059) and then treated with LPS (time, above lanes). […] (C) Real-time RCR analysis of the stability of LPS-induced 4-1BBL mRNA (1 hour of treatment; LPS) or ectopically expressed 4-1BBL mRNA at 18 hour after infection with recombinant adenovirus encoding 4-1BBL (Adv). Actinomycin D was used to inhibit transcription. Values are the percent remaining relative to the value at 0 hour (set at 100%). LPS-induced alterations in mRNA stability were also involved in LPS-induced 4-1BBL expression. (D) Flow cytometry of 4-1BBL expression by wild-type peritoneal macrophages treated with LPS (time, key): right, surface expression; left, total expression in cells made permeable with 0.1% saponin. LPS-induced 4-1BBL is located on the cell surface. (E) Immunofluorescence microscopy of wild-type peritoneal macrophages preincubated for 1 hour with (+) or without (−) brefeldin A (3 μg/mL), then treated with LPS (time, left margin) and immunostained with anti-4-1BBL. Original magnification, ×100. Brefeldin A blocks protein translocation to the cell surface by inhibiting its translocation from the endoplasmic reticulum to the Golgi apparatus. (F) Semiquantitative PCR of 4-1BBL and TNF mRNA in lysates of cells treated as described in E. Brefeldin A neither affected the LPS-induced increase in 4-1BBL mRNA nor influenced LPS-induced TNF mRNA after 1 hour, but did reduce TNF mRNA at 2, 4 and 6 hours. GAPDH (A,B,F): glyceraldehyde phosphate dehydrogenase (loading control). Data are representative of three independent experiments.
Semiquantitative PCR was performed as described by Kim et al., J. Exp. Med. 197:1441-52 (2003). For real-time PCR, 0.5 μg of total RNA were used to prepare cDNA using oligo(dT)12 as a primer. The SYBR green PCR Master Mix kit (Applied Biosystems) was used in the real-time PCR analysis.
To determine whether the newly synthesized 4-1BBL needs to be on the cell surface in order to regulate the expression of TNF, peritoneal macrophages were preincubated with or without brefeldin A (3 μg/mL) for 1 hour and were then treated with LPS for the indicated times. Immunostaining was performed using anti-4-1BBL antibodies. 4-1BBL and TNF mRNA were analyzed by semiquantitative PCR. GAPDH was used as control. Brefeldin A is a specific inhibitor that blocks protein translocation to the cell surface by inhibiting its translocation from the endoplasmic reticulum to the Golgi apparatus Klausner et al., J. Cell Biol. 116:1071-1080 (1992) (FIG. 7E).

TNF mRNA = experiment: Semiquantitative PCR of LPS-induced TNF mRNA in peritoneal macrophages; conditions: preincubated 1 hour with brefeldin A 3 μg/mL
Method: (A) Immunoblot of 4-1BBL in lysates from wild-type macrophages and macrophages deficient in TLR4 (TLR4 KO), MyD88 (MyD88 KO) or TRIF (TRIF KO), treated with LPS (time, above lanes). LPS induces quick expression of 4-1BBL in macrophages in a TLR4-, MyD88-, and TRIF-dependent manner. (B) Semiquantitative PCR of 4-1BBL mRNA in wild-type macrophages left without pretreatment (None) or pretreated for 1 hour with inhibitors of NF-κB (20 μM sulfasalazine), p38 (10 μM SB203580), Jnk (5 μM SP600125) or MEK (10 μM PD98059) and then treated with LPS (time, above lanes). […] (C) Real-time RCR analysis of the stability of LPS-induced 4-1BBL mRNA (1 hour of treatment; LPS) or ectopically expressed 4-1BBL mRNA at 18 hour after infection with recombinant adenovirus encoding 4-1BBL (Adv). Actinomycin D was used to inhibit transcription. Values are the percent remaining relative to the value at 0 hour (set at 100%). LPS-induced alterations in mRNA stability were also involved in LPS-induced 4-1BBL expression. […]
To determine whether the newly synthesized 4-1BBL needs to be on the cell surface in order to regulate the expression of TNF, peritoneal macrophages were preincubated with or without brefeldin A (3 μg/mL) for 1 hour and were then treated with LPS for the indicated times. […] 4-1BBL and TNF mRNA were analyzed by semiquantitative PCR. […]

wild-type macrophages = experiment: ELISA of TNF production by macrophages infected with adenovirus expressing 4-1BBL; conditions: inhibitor added 6 h after infection (20 μM sulfasalazine, 10 μM SB203580, 5 μM SP600125, 10 μM PD98059), analyzed 24 hour after infection
Method: FIG. 10A-I indicate that two sequential TLR4 complexes exist. (A) Immunoassay of wild-type macrophages treated with LPS (time, above lanes); total cell lysates (Lysates; top) or lysates immunoprecipitated with anti-TLR4, anti-MyD88 or anti-4-1BBL were analyzed by immunoblot with anti-4-1BBL, anti-TLR4 and/or anti-MyD88. Dashed outline, isotype antibody (negative control for immunoprecipitation); solid outlines, positive control for immunoblot of 4-1BBL or MyD88. In LPS-treated macrophages, the MyD88-TLR4 complex is responsible for the initial cellular responses, and the 4-1BBL-TLR4 complex is involved in sustaining TNF production. […] (C) 4-1BBL interacts with TRAF6, but not TRAF2. (D) Knockdown of TRAF6 impaired LPS, PolyI:C, and IL-1β induced cytokine production, but has no effect on TNF-induced IL-6 production. […]

Row | Compound | LPS-induced increase in 4-1BBL mRNA (4-1BBL mRNA; preincubated 1 hour with brefeldin A 3 μg/mL, then LPS) | LPS-induced TNF mRNA at 2, 4, and 6 hours (TNF mRNA; LPS 2, 4, 6 hours) | LPS-induced TNF mRNA after 1 hour (TNF mRNA; LPS 1 hour) | LPS-induced 4-1BBL mRNA / 4-1BBL expression (4-1BBL mRNA) | 4-1BBL-mediated TNF production (wild-type macrophages)
1 | C[C@H]1CCC/C=C/[C@@H]2C[C@H](O)C[C@H]2[C@H](O)/C=C/C(=O)O1 [Brefeldin A] | did not affect | did reduce | did not influence |  | 
2 | CC(C)C[C@@H](C=O)NC(=O)[C@H](CC(C)C)NC(=O)[C@H](CC(C)C)NC(=O)OCc1ccccc1 [MG-132] (Cbz-Leu-Leu-Leu-aldehyde) |  |  |  | effectively inhibited | 
3 | COc1cccc(-c2cc(=O)c3ccccc3o2)c1N [PD98059] |  |  |  | some inhibitory effects | reduced
4 | C[S+]([O-])c1ccc(-c2nc(-c3ccncc3)c(-c3ccc(F)cc3)[nH]2)cc1 (stereo not drawn) [SB203580] |  |  |  | some inhibitory effects | reduced
5 | O=C(O)c1cc(/N=N/c2ccc(S(=O)(=O)Nc3ccccn3)cc2)ccc1O [sulfasalazine] |  |  |  | effectively inhibited | 
